This passage reports IC50 results from BindingDB's records for doi:10.7270/Q2QF8R8B (Pcmd, 2008).

The target in the assay is T1, Cathepsin G (Homo sapiens, UniProt P08311).
T1 sequence (P08311 whole entry): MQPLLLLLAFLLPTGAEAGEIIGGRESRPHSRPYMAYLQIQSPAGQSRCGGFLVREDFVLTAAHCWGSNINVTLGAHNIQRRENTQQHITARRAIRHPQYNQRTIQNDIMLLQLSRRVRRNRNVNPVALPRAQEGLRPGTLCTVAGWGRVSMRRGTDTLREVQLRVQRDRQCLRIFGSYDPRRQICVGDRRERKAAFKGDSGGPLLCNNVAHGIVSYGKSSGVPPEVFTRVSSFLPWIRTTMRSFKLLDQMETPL
The assay can be described thus: IC50 of CTSG protease blockers – biochemical, confirmation, dose response (AID 832).

SMILES strings stand for the structures. pIC50: −log10 of the molar value.

Consider `O=C(NCCc1ccccc1)c1noc2c1CCc1ccccc1-2` [MLS000087424], for which the pIC50 (usually −log10 of the IC50, conventionally taken in molar units) was 5.60.

The molecule `CN1CC2(Cc3c1ccc1ccccc31)C(=O)OC(C)(C)OC2=O` [2',2',4-trimethylspiro[1,3-dihydrobenzo[f]quinoline-2,5'-1,3-dioxane]-4',6'-dione] had a pIC50 of 4.63.

Turning to `COc1ccc(C(=O)n2nc(-c3ccc(C)cc3)nc2N)cc1OC`, the pIC50 was < 4.30.

`Nc1nncn1C(=O)c1cccs1` [(3-Amino-[1,2,4]triazol-4-yl)-thiophen-2-yl-methanone]: the pIC50 was 4.55.

For the molecule `COc1ccccc1/N=C/c1nc(-c2ccccc2)oc1OC(C)=O` [SMR000039734], the pIC50 is 4.42.

The molecule `Cc1cc(C)cc(C(=O)n2cnnc2N)c1` had a pIC50 of 5.41. Against the preceding molecule, the pIC50 is 0.99 log units higher.

For the molecule `COc1ccc(-c2cc(C(=O)NCc3ccc(Cl)cc3)no2)cc1OC` [MLS000087122], the negative-log IC50 (pIC50) is 4.36.

Molecule `COc1ccc2c(c1)CCc1c(C(=O)Nc3ccc(OC)c(OC)c3)noc1-2` [MLS000087452] had a pIC50 of 4.84. This pIC50 is 0.48 log units higher than that of the molecule before.

As for `Cc1ccsc1C=c1sc2ncnn2c1=O` [5-[(3-methyl-2-thienyl)methylene][1,3]thiazolo[3,2-b][1,2,4]triazol-6(5H)-one], the pIC50 was 5.33.

As to `COc1cccc(-c2cc(C(=O)NCCc3ccccc3)no2)c1` [5-(3-methoxyphenyl)-N-(2-phenylethyl)-1,2-oxazole-3-carboxamide], the pIC50 was < 4.30.

Molecule `CSc1nc(-c2ccco2)nn1C(=O)c1ccc(C)cc1` [[3-(furan-2-yl)-5-methylsulfanyl-1,2,4-triazol-1-yl]-(4-methylphenyl)methanone] showed a pIC50 of 5.99.
